Test results as given in paper PMC7525492, “Microtiter plate-based antibody-competition assay to determine binding affinities and plasma/blood stability of CXCR4 ligands” (Scientific Reports, 2020).
Read-outs that look alike come from different tables or passages of the source. Bridge positions count the residues as written; N and C are the ends. Square brackets hold non-standard residues; d marks the D form. Ends that are not written are not given here. Peptide text beside a SMILES is read from it. * marks the point of attachment. 2Nal = N[C@@H](Cc1ccc2ccccc2c1)C(=O)O; Benzoyl(4-F) = O=C(c1ccc(F)cc1)*; Cit = NC(=O)NCCC[C@H](N)C(=O)O

How the values were obtained:
[1] = system: CXCR4-tropic HIV-1; conditions: read-out: IC50 HIV-1; TZM-bl cells, infection rate after 3 days; mean ± SEM of 3 assays
[2] = molecular target: T1, CXCR4 (Homo sapiens, UniProt P61073); experiment: 1D9 control antibody competition on SupT1 cells; format: binding; conditions: PE-labelled 1D9, SupT1 cells, single experiment
[3] = system: SupT1 cells
[4] = Functional stability in human plasma read out by 12G5 competition; format: in vitro ADME; conditions: for half-life at 20 µM: human, plasma
Protocol: The t = 0 sample was immediately taken and stored at − 80 °C. Plasma/compound or blood/compound mixture was then transferred to 37 °C and shook at 350 rpm. At given time points samples were taken and stored at − 80 °C. For measuring the functional activity of the plasma/peptide samples, the mixtures were thawed and serially diluted in ice cold PBS (starting with 100% sample). 12G5-APC antibody competition was then performed as described before. Note, that during the competition process the samples are 1:1 diluted with the antibody and the highest plasma concentration on cells was 50%. For blood/peptide functional stability, samples were thawed and centrifuged at 14,000 rpm for 3 min at 4 °C to remove cells and debris. The supernatant was then serially diluted in PBS (starting with 100% sample) and 12G5-antibody competition assay was performed. […] Afterwards cells were washed again and analyzed for bound antibody.
(§1) Statistical analysis was performed in GraphPad Prism (version 8.3.0). IC50 and IC90 curves and the areas under the curves (AUC) were determined by nonlinear regression.

[5] = system: CXCR4-tropic HIV-1; parameters: method as in PMID 25921529, PMID 30768790; conditions: cited from earlier work
[6] = molecular target: T1, CXCR4; experiment: 12G5 antibody competition assay on SupT1 cells; format: binding; conditions: 1, 2 and 4 h incubation, Fig. S2
[7] = in vitro; format: in vitro ADME, human
Protocol: Compounds were 150-fold diluted in human plasma or whole human blood to reach final concentrations of 20 µM. The t = 0 sample was immediately taken and stored at − 80 °C. Plasma/compound or blood/compound mixture was then transferred to 37 °C and shook at 350 rpm. At given time points samples were taken and stored at − 80 °C. For measuring the functional activity of the plasma/peptide samples, the mixtures were thawed and serially diluted in ice cold PBS (starting with 100% sample). 12G5-APC antibody competition was then performed as described before. Note, that during the competition process the samples are 1:1 diluted with the antibody and the highest plasma concentration on cells was 50%. For blood/peptide functional stability, samples were thawed and centrifuged at 14,000 rpm for 3 min at 4 °C to remove cells and debris. The supernatant was then serially diluted in PBS (starting with 100% sample) and 12G5-antibody competition assay was performed. After the 2 h incubation, the cells were washed by centrifugation (1.300 rpm, 4 °C) and 50 µL of 1-step-Fix/Lyse solution (Thermo Fisher #00-5333-54) was added for 15 min at room temperature. Afterwards cells were washed again and analyzed for bound antibody.
Statistical analysis was performed in GraphPad Prism (version 8.3.0). IC50 and IC90 curves and the areas under the curves (AUC) were determined by nonlinear regression. For half-life calculations, the IC50 values for each time point as well as the AUCs were analyzed and normalized relative to t = 0. Activities were then determined ((IC50 (t = 0) / IC50 (t)) × 100) for each time point and half-lives determined by a One-Phase-Decay model.

[8] = system: CXCL12 migration; conditions: cited from earlier work
[9] = molecular target: T1, CXCR4; experiment: 12G5 antibody competition assay on SupT1 cells; format: binding
Protocol: Compounds were serially diluted in ice cold PBS and 12G5-APC antibody was diluted in cold PBS containing 1% FCS. […] Plates were incubated at 4 °C in the dark for 2 h. Afterwards cells were washed twice by centrifugation with PBS containing 1% FCS and fixed with 2% paraformaldehyde (PFA). During all pipetting steps, plates were kept cool by using a cooling pad. Antibody binding was analyzed by flow cytometry (FACS CytoFLEX; Beckman Coulter) by determination of the mean fluorescence intensity (MFI) of at least 5.000 cells (50.000 cells per well) or 1.000 cells (5.000 cells per well).
Ki calculation3 Ki=IC50/1+L/Kd
For Ki = inhibitory constant; IC50 = half maximal inhibition for 12G5 binding; [L] = 12G5 concentration; Kd = dissociation constant of 12G5.
as §1

[10] = 20 µM, up to 60 min, 37 °C, mouse plasma from a single animal
[11] = read-out: IC50 Migration, 100 ng/mL CXCL12, 4 h, mean ± SEM of 3 assays

T1 sequence (P61073 whole entry): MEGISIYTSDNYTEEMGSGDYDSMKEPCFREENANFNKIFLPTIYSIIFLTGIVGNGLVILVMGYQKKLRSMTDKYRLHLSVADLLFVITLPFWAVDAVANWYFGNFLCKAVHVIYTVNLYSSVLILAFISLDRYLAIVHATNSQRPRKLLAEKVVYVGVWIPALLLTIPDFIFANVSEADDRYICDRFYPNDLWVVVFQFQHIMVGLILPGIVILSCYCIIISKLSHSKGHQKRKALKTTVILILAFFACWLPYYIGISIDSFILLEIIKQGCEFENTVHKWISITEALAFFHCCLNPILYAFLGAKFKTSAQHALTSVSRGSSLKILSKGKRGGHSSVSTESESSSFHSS

N=C(N)NCCC[C@H](NC(=O)[C@@H]1CSSC[C@H](NC(=O)[C@H](Cc2ccc3ccccc3c2)NC(=O)[C@H](CCCNC(=N)N)NC(=O)[C@H](CCCNC(=N)N)NC(=O)c2ccc(F)cc2)C(=O)N[C@@H](Cc2ccc(O)cc2)C(=O)N[C@@H](CCCNC(N)=O)C(=O)N[C@@H](CCCCN)C(=O)N[C@H](CCCCN)C(=O)N2CCC[C@H]2C(=O)N[C@@H](Cc2ccc(O)cc2)C(=O)N[C@@H](CCCNC(=N)N)C(=O)N[C@@H](CCCNC(N)=O)C(=O)N1)C(N)=O [BKT-140] ({Benzoyl(4-F)}-RR[2Nal]CY[Cit]K[dK]PYR[Cit]CR-NH2; disulfide 4-13; N-terminus and C-terminus assumed)
IC50 [1]: 435 ± 153 nM
effect on 1D9 antibody binding [2]: seemed to reduce 1D9 binding
IC50 [3, 11]: 932 ± 131 nM

IVRWSKKVPCVS [EPI-X4 WSC02]
IC50 [1]: 257 ± 109 nM
12G5-competing activity after 24 h in plasma ([4]; 20 µM in 99.3% pooled human plasma, 37 °C, 24 h): remained partially active
half-life t1/2 in plasma ([4]; 20 µM in pooled human plasma (6 donors), 37 °C, from IC50 relative to t = 0, one-phase decay): 10 min
half-life t1/2 in plasma ([4]; 20 µM in pooled human plasma (6 donors), 37 °C, from IC50 relative to t = 0, one-phase decay, listed as WCS02): ~ 10 min
inactivation in plasma with L-leucinethiol ([4]; human plasma pretreated with 300 µM L-leucinethiol (leucyl aminopeptidase inhibitor)): largely prevented WSC02 inactivation
half-life at 20 µM ([4]; 20 µM in plasma of an individual donor, 37 °C, read-out: half-life t1/2 in plasma): 9.7 min
half-life at 20 µM ([4]; 20 µM in pooled human plasma (6 donors), 37 °C, from IC50 relative to t = 0, one-phase decay, read-out: half-life t1/2 in plasma): 9.7 min
half-life at 20 µM ([4]; 20 µM in pooled human plasma, 37 °C, from areas under inhibition curves, read-out: half-life t1/2 in plasma from AUC): 9.7 min
IC50 CXCR4-tropic HIV-1 infection [5]: nanomolar range
IC50, IC90 and AUC after different incubation times [6]: No significant differences
half-life t1/2 in blood ([7]; 20 µM in whole EDTA blood of an individual donor, 37 °C): 9 min
half-life at 20 µM ([7]; human, 20 µM in whole EDTA blood of an individual donor, 37 °C, read-out: half-life t1/2 in blood): 8.9 min
stability in blood compared to plasma ([7]; human, plasma): less stable in blood compared to plasma
IC50 leukemia cell migration towards CXCL12 [8]: nanomolar range
IC50 [3, 11]: 15800 nM
IC50 ([3]; read-out: IC50 migration, SupT1 towards CXCL12): 16000 nM
IC50 ([9]; SupT1 cells, APC-labelled 12G5, 2 h at 4 °C, mean ± SEM of 3 assays): 290 ± 75 nM
Ki ([9]; calculated from IC50 12G5 by Cheng-Prusoff, Kd of 12G5 151.5 pM): 111 ± 29 nM
inactivation in mouse plasma versus human plasma [10]: more rapid inactivation of the peptide in mouse plasma
